In patent US20080255080A1, “Hydroquinone Ansamycin Formulations” (priority 2007, published 2008):

Test: Solubility in aqueous solutions
Format: physicochemical
Method: The hydroquinones provided herein may be converted into salt form by reaction with an acid, or by reaction with an acid halide of an amino acid. In the examples, the C-17 alkyl amino group is protonated to generate a C-17 ammonium salt hydroquinone geldanamycin analog. In addition, the C-17 ammonium salt hydroquinones formed have the added benefit of being highly soluble in aqueous solutions (solubility >200 mg/mL), unlike 17-AAG (solubility <100 μg/mL).

solubility: < 100 µg/mL
SMILES: C=CCNC1=C2C[C@@H](C)C[C@H](OC)[C@H](O)[C@@H](C)/C=C(\C)[C@H](OC(N)=O)[C@@H](OC)/C=C\C=C(/C)C(=O)NC(=CC1=O)C2=O [Compound 17-AAG]
